# In publication PMC5751115, “Screening In Vitro Targets Related to Diabetes in Herbal Extracts from Peru: Identification of Active Compounds in Hypericum laricifolium Juss. by Offline High-Performance Liquid Chromatography” (International Journal of Molecular Sciences, 2017):
# Key:
# [1] = DPPH free radical scavenging assay; conditions: for Antioxidants DPPH IC50 (μM) / IC50: Table 3, isolated compounds, NA is not active; for IC50: read-out: Antioxidants DPPH IC50
# Experimental: The DPPH free radical scavenging activity was determined as previously described with slight modifications. […] After 15 min incubation in the darkroom, the absorbance change at 570 nm was measured on a microplate reader (EL800 Universal Microplate reader, BioTek Instruments, Winooski, VT, USA). L-Ascorbic acid was used as positive control.
# [2] = target: rat lens aldose reductase (RLAR) (Rattus norvegicus, UniProt P07943); assay: Rat lens aldose reductase (RLAR) assay; type: biochemical; conditions: for AR IC50 (μM) / IC50: Table 3, isolated compounds, means ± SD (n = 3), NA is not active; for IC50: read-out: AR IC50
# Experimental: The rat lenses (RL) were prepared as follows: the RL were removed from the eyes from 10-week-old Sprague-Dawley rats (weight = 250–280 g) and frozen until required. The rats were housed in a standardized laboratory environment with a 12 h light/12 h dark cycle at constant room temperature (22 ± 1 °C) and humidity (6 ± 5%) before experimentation. All animals had free access to water and food.
# The AR inhibitory activities were evaluated using RLAR. Prior to analysis, the lenses were homogenized in 0.1 M phosphate buffer saline (pH 6.2) and subsequently centrifuged at 10,000× g for 30 min at 4 °C. The rat lens aldose reductase (RLAR)-containing supernatant was then collected. A substrate comprising 531 μL 0.1 M potassium buffer (pH 7.0), 90 μL NADPH solution (1.6 mM in potassium buffer), 90 μL RLAR homogenate (6.5 U/mg), 90 μL ammonium sulfate solution (4 M in potassium buffer), and 90 μL DL-glyceraldehyde (25 mM in potassium buffer) was placed into a 1.0-mL cuvette and mixed with 9 μL sample (1 mg/mL dissolved in DMSO). RLAR activity was assessed spectrophotometrically by measuring the decrease in NADPH absorption at 340 nm over a 4 min period.
# [3] = ABTS free radical scavenging assay; conditions: for Antioxidants ABTS IC50 (μM) / IC50: Table 3, isolated compounds, NA is not active; for IC50: read-out: Antioxidants ABTS IC50
# Experimental: The ABTS free radical scavenging activity was determined using ABTS radical cations (ABTS^+) with slight modifications [34]. Briefly, potassium persulfate (3.5 mM) and ABTS diammonium salt (2.0 mM) were mixed, diluted in distilled water, and subsequently allowed to stand in the dark at room temperature for 24 h before use, to allow free radical generation. To determine the scavenging activity, the absorbance was recorded at 750 nm using an EL-800 Universal microplate reader (BioTek Instrument Inc., Winooski, VT, USA) after incubating the sample solutions (10 µL, 1 mg/mL, 0.5 mg/mL in methanol) with ABTS solution (290 µL) for 10 min in a 96-well plate. Trolox was used as a positive control.
# [4] = Offline ABTS-HPLC analysis; conditions: peak area reduction in HL 70% MeOH extract after ABTS
# Experimental: Offline ABTS-HPLC was investigated by modifying a previously reported protocol. Briefly, 10 μL of 70% methanol extract from HL (20 mg/mL) was mixed with 140 μL ABTS solution that was prepared one day in advance. The mixture was then incubated at room temperature for 10 min and subsequently filtered through a 0.45 μm filter. The filtrate was analyzed by HPLC (Section 3.9). The methanol extract of HL (20 mg/mL in MeOH was used as control. The detector monitored the eluent at a wavelength of 300 nm and the % QR was calculated as described in Section 3.11.
# [5] = test system: α-glucosidase; assay: α-Glucosidase inhibitory assay; type: biochemical
# Experimental: α-Glucosidase inhibitory activity was determined using a previously reported method with slight modifications. The initial concentration of the enzyme solution was 0.015 mg/mL in 0.1 M phosphate buffer (pH 6.9) and the initial concentration of the substrate solution was 1 mM in the same phosphate buffer. The enzyme solution was mixed in a clear 96-well microplate (flat bottom) and the reaction was initiated by the addition of the substrate to the solution. The plates were incubated at 37 °C for 10 min.
# [6] = Offline DPPH-HPLC analysis; conditions: peak area reduction in HL 70% MeOH extract after DPPH
# Experimental: The DPPH radical assay was modified by an offline DPPH-HPLC assay. […] After incubation (15 min) in the dark room, the mixture was filtered through a 0.45-μm membrane and subsequently analyzed by HPLC (Section 3.9). The sample incubated with methanol was used as control. The decreases in peak area were expressed as the % quantitative reduction (% QR), calculated from the equation: % QR = (A − B)/A × 100%, where A and B are the HPLC peak areas of the compound incubated without and with the DPPH methanol solution, respectively.
# [7] = test system: α-glucosidase; assay: α-Glucosidase ultrafiltration-HPLC assay; type: binding; conditions: peak in HL 70% MeOH extract 0.1 mg/mL; α-glucosidase 3.9 μM
# Experimental: The α-glucosidase present in the HL was profiled using a newly developed α-glucosidase ultrafiltration assay. Specifically, the HL 30 μL sample (final concentration = 0.1 mg/mL) was incubated with α-glucosidase (3.9 μM) in PBS (300 μL, pH 7.0) at 37 °C for 30 min. The incubated mixture was then filtered by centrifugation at 5167× g for 30 min at room temperature using a Microcon YM-10 centrifugal filter unit (Millipore, Bedford, MA, USA). The filtrate was subsequently analyzed by HPLC on a Dionex system (Dionex, Sunnyvale, CA, USA) consisting of a P850 pump, an ASI-100 automated sample injector, a Synergi Hydro-RP 80A column (150 mm × 4.6 mm, 4 μm; Phenomenex, Torrance, CA, USA) maintained at 30 °C, and a UVD170S detector. The injection volume was 10 μL and the flow rate of the mobile phase was 0.7 mL/min. The mobile phase compositions were as follows: 0.1% trifluoroacetic acid (A-line) and methanol (B-line). The gradient elution system was modified as follows: 0–35 min, starting with 5% B-line, programmed to reach 40% B-line at 15 min using a linear gradient, followed by 100% B-line from 15–35 min. The detector monitored the eluent at a wavelength of 254 nm. The sample incubated without α-glucosidase was used as control.
# [8] = target: T1, Human recombinant AR (HRAR) (Homo sapiens, UniProt P15121); assay: HRAR ultrafiltration-HPLC assay; type: binding; conditions: peak in HL 70% MeOH extract 0.1 mg/mL; HRAR 3.9 μM
# T1 construct: purchased Wako Pure Chemical Industries Co. (Osaka, Japan)
# Experimental: The AR Inhibitors (ARIs) present in HL were profiled using a newly developed AR ultrafiltration assay. Specifically, the HL sample (final concentration = 0.1 mg/mL) was incubated with 0.6 M ammonium sulfate and 3.9 μM HRAR (Human recombinant AR) in a total volume of 300 μL at 37 °C for 30 min. The incubated mixture was then filtered by centrifugation at 5167× g for 30 min at room temperature using a Microcon YM-10 centrifugal filter unit. The filtrate was subsequently analyzed by HPLC (Section 3.9). The sample incubated without HRAR was used as control.
# [9] = means ± SD (n = 3), listed as Quercetin (7)
structure (smiles),measurement,setting,value
"COc1cc(C(=O)O)ccc1O [Compound 4, vanillic acid]",Antioxidants DPPH IC50 (μM),[1]; means ± SD (n = 3),inactive
same,AR IC50 (μM),[2],inactive
same,Antioxidants ABTS IC50 (μM),[3]; means ± SD (n = 3),inactive
"O=c1c(O)c(-c2ccc(O)c(O)c2)oc2cc(O)cc(O)c12 [Quercetin, quercetin, reference compound]",inhibition at 10 µg/mL,[2]; read-out: AR Inhibition (%),83.7 ± 2.6%
"O=C1O[C@H]([C@@H](O)CO)C(O)=C1O [L-Ascorbic, L-ascorbic acid, reference compound]",DPPH Inhibition (%),"[1]; Table 2, L-ascorbic acid at 71 μg/mL",99.1 ± 0%
same,DPPH IC50,"[1]; Table 2, means ± SD (n = 3)",17.6 ± 0.1 µg/mL
"O=C(O)/C=C/c1ccc(O)c(O)c1 [Compound 5, caffeic acid]",IC50,[1]; means ± SD (n = 3),47.2 ± 0.1 µM
same,IC50,[2],28.3 ± 0.9 µM
same,IC50,[3]; means ± SD (n = 3),7.2 ± 1.1 µM
same,"quantitative reduction percentage (QR), offline ABTS-HPLC",[4],76%
"Cc1c(C)c2c(c(C)c1O)CCC(C)(C(=O)O)O2 (centres unmarked) [Trolox, 6-hydroxy-2,5,7,8-tetramethylchroman-2-carboxylic acid, reference compound]",ABTS IC50,"[3]; Table 2, means ± SD (n = 3)",4.6 ± 0.1 µg/mL
same,ABTS Inhibition (%),"[3]; Table 2, trolox at 17 μg/mL",100 ± 0.1%
same,IC50,[3]; means ± SD (n = 3),18.8 ± 0.5 µM
"C[C@H]1O[C@H](O[C@H]2[C@H](O)[C@@H](O)[C@@H](O[C@H]3[C@H](O)[C@@H](O)C(O)O[C@@H]3CO)O[C@@H]2CO)[C@H](O)[C@@H](O)[C@@H]1N[C@H]1C=C(CO)[C@@H](O)[C@H](O)[C@H]1O (some centres unmarked) [Acarbose, acarbose, reference compound]",α-Glucosidase Inhibition (%),"[5]; Table 2, 500 μg/mL",55.82 ± 2.3%
"O=C(O)c1ccc(O)c(O)c1 [Compound 1, protocatechuic acid]",IC50,[1]; means ± SD (n = 3),263.4 ± 0.2 µM
same,IC50,[2],16.9 ± 1.9 µM
same,IC50,[3]; means ± SD (n = 3),9.7 ± 0.9 µM
"O=c1c(O)c(-c2ccc(O)c(O)c2)oc2cc(O)cc(O)c12 [Compound 7, quercetin]","% quantitative reduction (QR), offline DPPH-HPLC",[6],42.8%
same,IC50,[1]; [9],0.33 µM
same,α-glucosidase percentage inhibition,"[5]; isolated compound, Figure 2, 50 μg/mL",91%
same,IC50,[3]; [9],0.33 ± 0.6 µM
same,"total binding degree (TBD), α-glucosidase ultrafiltration-HPLC",[7],61.57%
same,"quantitative reduction percentage (QR), offline ABTS-HPLC",[4],> 80%
"O=c1c(O)c(-c2ccc(O)cc2)oc2cc(O)cc(O)c12 [Compound 8, kaempferol]","% quantitative reduction (QR), offline DPPH-HPLC",[6],51%
same,IC50,[1]; means ± SD (n = 3),326 ± 3.3 µM
same,"total binding degree (TBD), HRAR ultrafiltration-HPLC",[8],< 20%
same,IC50,[2],9.7 ± 0.5 µM
same,IC50,[3]; means ± SD (n = 3),191.8 ± 1.1 µM
same,"quantitative reduction percentage (QR), offline ABTS-HPLC",[4],54%
"O=C(/C=C/c1ccc(O)c(O)c1)O[C@@H]1C[C@](O)(C(=O)O)C[C@@H](O)[C@H]1O [Compound 3, chlorogenic acid]","total binding degree (TBD), HRAR ultrafiltration-HPLC",[8],~ 20%
same,IC50,[2],0.23 µM
"O=C(O)[C@H]1O[C@@H](Oc2c(-c3ccc(O)cc3)oc3cc(O)cc(O)c3c2=O)[C@H](O)[C@@H](O)[C@@H]1O [Compound 6, kaempferol 3-O-glucuronide]",IC50,[1]; means ± SD (n = 3),58.8 ± 2.1 µM
same,"total binding degree (TBD), HRAR ultrafiltration-HPLC",[8],30%
same,IC50,[2],6 ± 1.1 µM
same,IC50,[3]; means ± SD (n = 3),11 ± 0.2 µM
"O=C(O)c1ccc(O)cc1 [Compound 2, p-hydroxybenzoic acid]",Antioxidants DPPH IC50 (μM),[1]; means ± SD (n = 3),inactive
same,AR IC50 (μM),[2],inactive
same,Antioxidants ABTS IC50 (μM),[3]; means ± SD (n = 3),inactive
